Experiments:
STH7 = assay: qRT-PCR of strigolactone-responsive gene STH7 in seedlings; type: in vivo, Arabidopsis; conditions: 10-day-old seedlings, 1 μM (+)-GR24 alone, 24 h
AtD14-GFP fusion protein = target: T1, AtD14-GFP fusion protein (Arabidopsis thaliana, UniProt Q9SQR3); assay: AtD14-GFP degradation in 35S::AtD14-GFP/atd14-1 seedlings; type: in vivo; conditions: 1 μM (+)-GR24 alone, 24 h
T1 sequence (Q9SQR3 1-267): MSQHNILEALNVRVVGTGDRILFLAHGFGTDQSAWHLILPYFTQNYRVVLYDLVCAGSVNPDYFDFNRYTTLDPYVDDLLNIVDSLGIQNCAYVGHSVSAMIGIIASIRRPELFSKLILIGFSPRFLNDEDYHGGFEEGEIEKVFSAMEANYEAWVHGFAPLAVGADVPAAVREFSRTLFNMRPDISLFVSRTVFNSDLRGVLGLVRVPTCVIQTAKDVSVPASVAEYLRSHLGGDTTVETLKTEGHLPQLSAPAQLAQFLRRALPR

BRC1 = assay: qRT-PCR of strigolactone-responsive gene BRC1 in seedlings; type: in vivo, Arabidopsis; conditions: 10-day-old seedlings, 1 μM (+)-GR24 alone, 24 h

(+)-GR24
expression of STH7 (STH7): increased
GFP signal in hypocotyl (AtD14-GFP) (AtD14-GFP fusion protein): striking reduction
expression of BRC1 (BRC1): increased

— paper PMC5833010 (ACS Central Science, 2018)
